In ChEMBL document CHEMBL3885881, “DrugMatrix”:

Species on record: Rattus norvegicus
Test: DrugMatrix - Regimen: Daily Repeat
Type: toxicity, organism-based, Sprague-Dawley
Set-up: regimen Daily Repeat, gender Male, age 6-8 weeks
Settings: in vivo, sc, route subcutaneous, […]; for ABSOLUTE BASOPHIL / ABSOLUTE EOSINOPHIL / ABSOLUTE LYMPHOCYTE / ABSOLUTE MONOCYTE / ABSOLUTE SEGMENTED NEUTROPHIL / BASOPHIL / EOSINOPHIL / ERYTHROCYTE COUNT / HEMATOCRIT / LEUKOCYTE COUNT / MEAN CORPUSCULAR HEMOGLOBIN / MEAN CORPUSCULAR HEMOGLOBIN CONCENTRATION / MEAN CORPUSCULAR VOLUME / MONOCYTE / NEUTROPHIL / NUCLEATED RED BLOOD CELLS / PLATELET COUNT: tissue Blood; for ALANINE AMINOTRANSFERASE / ALBUMIN / ALKALINE PHOSPHATASE / ASPARTATE AMINOTRANSFERASE / BLOOD UREA NITROGEN / CHLORIDE / CHOLESTEROL / CREATINE PHOSPHOKINASE / CREATININE / GLUCOSE / LACTATE DEHYDROGENASE / LIPASE / PHOSPHORUS / POTASSIUM / TOTAL BILIRUBIN / URIC ACID: tissue Plasma
[1] = 0 mg/kg, 72 h, dose level Control, time 3 day
[2] = 0 mg/kg, 120 h, dose level Control, time 5 day
[3] = 79 mg/kg, 72 h, dose level High, time 3 day

C[C@H]1C[C@H]2[C@@H]3CCC4=CC(=O)C=C[C@]4(C)[C@@]3(F)[C@@H](O)C[C@]2(C)[C@@]1(O)C(=O)CO [BETAMETHASONE]
ABSOLUTE BASOPHIL [1]: 0 CELLS/uL
ABSOLUTE EOSINOPHIL [1]: 0 CELLS/uL
ABSOLUTE LYMPHOCYTE [1]: 10887 CELLS/uL
ABSOLUTE MONOCYTE [1]: 56 CELLS/uL
ABSOLUTE SEGMENTED NEUTROPHIL [1]: 1057 CELLS/uL
BASOPHIL [1]: 0%
EOSINOPHIL [1]: 0%
ERYTHROCYTE COUNT [1]: 5.31 x10E6/uL
HEMATOCRIT [1]: 33.78%
LEUKOCYTE COUNT [1]: 12 x10E3/uL
MEAN CORPUSCULAR HEMOGLOBIN [1]: 25.25 pg
MEAN CORPUSCULAR HEMOGLOBIN CONCENTRATION [1]: 39.65 G/DL
MEAN CORPUSCULAR VOLUME [1]: 63.65 fL
MONOCYTE [1]: 0.5%
NEUTROPHIL [1]: 8.33%
NUCLEATED RED BLOOD CELLS [1]: 0 /100WBC
PLATELET COUNT [1]: 1142 x10E3/uL
ALANINE AMINOTRANSFERASE [1]: 57.17 u/L
ALBUMIN [1]: 4.28 G/DL
ALKALINE PHOSPHATASE [1]: 425.83 u/L
ASPARTATE AMINOTRANSFERASE [1]: 93.83 u/L
BLOOD UREA NITROGEN [1]: 14.17 mg/dL
CHLORIDE [1]: 100 MEQ/L
CHOLESTEROL [1]: 70.33 mg/dL
CREATINE PHOSPHOKINASE [1]: 438.67 u/L
CREATININE [1]: 0.19 mg/dL
GLUCOSE [1]: 138.5 mg/dL
LACTATE DEHYDROGENASE [1]: 190.17 u/L
LIPASE [1]: 9.83 u/L
PHOSPHORUS [1]: 11.05 mg/dL
POTASSIUM [1]: 6.59 MEQ/L
TOTAL BILIRUBIN [1]: 0.22 mg/dL
URIC ACID [1]: 1.3 mg/dL
ABSOLUTE BASOPHIL [2]: 0 CELLS/uL
ABSOLUTE EOSINOPHIL [2]: 91.17 CELLS/uL
ABSOLUTE LYMPHOCYTE [2]: 11847.67 CELLS/uL
ABSOLUTE MONOCYTE [2]: 172.83 CELLS/uL
ABSOLUTE SEGMENTED NEUTROPHIL [2]: 1105 CELLS/uL
BASOPHIL [2]: 0%
EOSINOPHIL [2]: 0.67%
ERYTHROCYTE COUNT [2]: 5.35 x10E6/uL
HEMATOCRIT [2]: 33.65%
LEUKOCYTE COUNT [2]: 13.22 x10E3/uL
MEAN CORPUSCULAR HEMOGLOBIN [2]: 25.12 pg
MEAN CORPUSCULAR HEMOGLOBIN CONCENTRATION [2]: 39.9 G/DL
MEAN CORPUSCULAR VOLUME [2]: 63 fL
MONOCYTE [2]: 1.33%
NEUTROPHIL [2]: 8.17%
NUCLEATED RED BLOOD CELLS [2]: 0 /100WBC
PLATELET COUNT [2]: 1347.83 x10E3/uL
ALANINE AMINOTRANSFERASE [2]: 50 u/L
ALBUMIN [2]: 4.1 G/DL
ALKALINE PHOSPHATASE [2]: 329.17 u/L
ASPARTATE AMINOTRANSFERASE [2]: 77.17 u/L
BLOOD UREA NITROGEN [2]: 16.83 mg/dL
CHLORIDE [2]: 99.83 MEQ/L
CHOLESTEROL [2]: 75.67 mg/dL
CREATINE PHOSPHOKINASE [2]: 295.83 u/L
CREATININE [2]: 0.18 mg/dL
GLUCOSE [2]: 156.33 mg/dL
LACTATE DEHYDROGENASE [2]: 166.83 u/L
LIPASE [2]: 9.83 u/L
PHOSPHORUS [2]: 12.18 mg/dL
POTASSIUM [2]: 6.69 MEQ/L
TOTAL BILIRUBIN [2]: 0.22 mg/dL
URIC ACID [2]: 1.6 mg/dL
ABSOLUTE BASOPHIL [3]: 0 CELLS/uL
ABSOLUTE EOSINOPHIL [3]: 18 CELLS/uL
ABSOLUTE LYMPHOCYTE [3]: 1334 CELLS/uL
ABSOLUTE MONOCYTE [3]: 44 CELLS/uL
ABSOLUTE SEGMENTED NEUTROPHIL [3]: 3004 CELLS/uL
BASOPHIL [3]: 0%
EOSINOPHIL [3]: 0.33%
ERYTHROCYTE COUNT [3]: 5.69 x10E6/uL
HEMATOCRIT [3]: 36.67%
LEUKOCYTE COUNT [3]: 4.4 x10E3/uL
MEAN CORPUSCULAR HEMOGLOBIN [3]: 25.27 pg
MEAN CORPUSCULAR HEMOGLOBIN CONCENTRATION [3]: 39.2 G/DL
MEAN CORPUSCULAR VOLUME [3]: 64.47 fL
MONOCYTE [3]: 1%
NEUTROPHIL [3]: 69%
NUCLEATED RED BLOOD CELLS [3]: 0 /100WBC
PLATELET COUNT [3]: 1406 x10E3/uL
ALANINE AMINOTRANSFERASE [3]: 146.33 u/L
ALBUMIN [3]: 5.37 G/DL
ALKALINE PHOSPHATASE [3]: 302 u/L
ASPARTATE AMINOTRANSFERASE [3]: 178 u/L
BLOOD UREA NITROGEN [3]: 25 mg/dL
CHLORIDE [3]: 96.67 MEQ/L
CHOLESTEROL [3]: 124.33 mg/dL
CREATINE PHOSPHOKINASE [3]: 219.33 u/L
CREATININE [3]: 0.27 mg/dL
GLUCOSE [3]: 443 mg/dL
LACTATE DEHYDROGENASE [3]: 492.67 u/L
LIPASE [3]: 12.67 u/L
PHOSPHORUS [3]: 11.8 mg/dL
POTASSIUM [3]: 6.32 MEQ/L
TOTAL BILIRUBIN [3]: 0.2 mg/dL
URIC ACID [3]: 1.43 mg/dL
